Test results from publication PMC11961695 (Annals of oncology : official journal of the European …, 2022).
“Also recorded” adds a separate entry of the source. Where two headings read alike, the source gives them in different places.

Columns and labels:
[1] = system: locally advanced or metastatic cholangiocarcinoma; conditions: cited from earlier work
serum phosphate = test: Serum phosphate pharmacodynamics and Emax exposure-response model; conditions: in vivo
[2] = FIGHT-101 clinical pharmacokinetics
[3] = FIGHT-101 safety and tolerability
[4] = system: refractory advanced malignancies with and without FGF/FGFR alterations; test: FIGHT-101 tumor response per investigator
[5] = FIGHT-202, FGFR2 fusions or rearrangements
[6] = all treated patients, any grade
[7] = cholangiocarcinoma with FGFR2 fusions or rearrangements (13 patients)

Structure (SMILES): CCN1C(=O)N(c2c(F)c(OC)cc(OC)c2F)Cc2cnc3[nH]c(CN4CCOCC4)cc3c21 [pemigatinib]
- Disease control rate [1, 5]: 82%
- Estimated median OS [1, 5]: 17.5 months
- ORR [1, 5]: 35.5%
- Disease control rate ([1]; FIGHT-202, no FGF/FGFR alterations): 22%
- Disease control rate ([1]; FIGHT-202, other FGF/FGFR alterations): 40%
- Pharmacologically active doses (serum phosphate): ≥ 4 mg
- Increase in average per-cycle exposure, CD versus ID regimen ([2]; 13.5 mg QD): 50%
- Dose proportionality of steady-state Cmax and AUC0–24 ([2]; 1–20 mg QD): dose-proportional increases
- Effect of a high-fat and high-calorie meal on pharmacokinetics ([2]; human, in vivo): modest effects on pemigatinib pharmacokinetics that were not considered clinically meaningful
- half-life ([2]; human, in vivo, Steady-state geometric mean terminal-phase disposition half-life, doses ≥6 mg QD): 12.1 to 15.4 h
- Dose-limiting toxicities ([3]; 1–20 mg QD, ID or CD, cycle 1): No dose-limiting toxicities were reported; also recorded: No DLTs were reported in any dose cohort; also recorded: No DLTs were encountered
- Clinically notable TEAEs ([3]; CD): 86.2%
- Dose interruptions due to TEAEs ([3]; CD): 74.1%
- Dose reductions due to TEAEs ([3]; CD): 17.2%
- Fatigue, grade ≥3 TEAE ([3]; CD): 15.5%
- Grade ≥3 TEAEs ([3]; CD): 75.9%
- Grade ≥3 hyponatremia ([3]; CD): 10.3%
- Grade ≥3 stomatitis ([3]; CD): 17.2%
- Hyperphosphatemia, any-cause TEAE ([3]; CD): 82.8%
- Hypophosphatemia events ([3]; CD): 12.1%
- Treatment discontinuations due to TEAEs ([3]; CD): 12.1%
- Clinically notable TEAEs ([3]; ID): 77.1%
- Dose interruptions due to TEAEs ([3]; ID): 32.9%
- Dose reductions due to TEAEs ([3]; ID): 5.7%
- Fatigue, grade ≥3 TEAE ([3]; ID): 5.7%
- Grade ≥3 TEAEs ([3]; ID): 50.0%
- Grade ≥3 hyponatremia ([3]; ID): 7.1%
- Grade ≥3 stomatitis ([3]; ID): 1.4%
- Hyperphosphatemia, any-cause TEAE ([3]; ID): 68.6%
- Hypophosphatemia events ([3]; ID): 18.6%
- Treatment discontinuations due to TEAEs ([3]; ID): 8.6%
- TEAEs of dry eye ([3]; all patients): 23.4%
- TEAEs of eyelash changes ([3]; all patients): 13.3%
- TEAEs of serous retinal detachment ([3]; all patients): no TEAEs of serous retinal detachment; also recorded: no serous retinal detachment events were reported
- TEAEs of vision blurred ([3]; all patients): 16.4%
- TEAEs of vitreous detachment ([3]; all patients): 1.6%
- Clinically notable TEAEs ([3]; all treated patients): 81.3%
- Dose interruption due to hypophosphatemia ([3]; all treated patients): 1.6%
- Dose interruption due to nail toxicities ([3]; all treated patients): 7.8%
- Dose interruption for hyperphosphatemia ([3]; all treated patients): 9.4%
- Dose reduction due to nail toxicities ([3]; all treated patients): 0.8%
- Dose reduction for hyperphosphatemia ([3]; all treated patients): 1.6%
- Dose reductions due to hypophosphatemia ([3]; all treated patients): none required dose reductions
- Fatigue, grade ≥3 TEAE ([3]; all treated patients): 10.2%
- Hyperphosphatemia requiring dose interruption ([3]; all treated patients): 12 n
- Hyperphosphatemia, grade ≥3 ([3]; all treated patients): 2.3%
- Nail discoloration ([3]; all treated patients): 13.3%
- Onycholysis ([3]; all treated patients): 14.8%
- Paronychia ([3]; all treated patients): 10.2%
- Patients with TEAE-related treatment discontinuation ([3]; all treated patients): 10.2%
- Patients with a TEAE ([3]; all treated patients): 99.2%
- Patients with dose interruption due to TEAEs ([3]; all treated patients): 51.6%
- Patients with dose reduction due to TEAEs ([3]; all treated patients): 10.9%
- Treatment-related TEAE ([3]; all treated patients): 90.6%
- Hyperphosphatemia, any-cause TEAE ([3]; all treated patients (N = 128), any grade): 75%
- Stomatitis requiring dose reduction ([3]; all treated patients (all CD)): 4 n
- Pneumonia requiring discontinuation ([3]; all treated patients (both ID)): 2 n
- Small intestinal obstruction requiring discontinuation ([3]; all treated patients (both ID)): 2 n
- Hyperphosphatemia, treatment-related TEAE [3, 6]: 73.4%
- Hypophosphatemia events [3, 6]: 15.6%
- Nail toxicities [3, 6]: 32.0%
- Hyperphosphatemia, treatment-related TEAE ([3]; all treated patients, grade ≥3): 1.6%
- Hypophosphatemia events ([3]; all treated patients, grade ≥3): 5.5%
- Nail toxicities ([3]; all treated patients, grade ≥3): 3.1%
- Treatment discontinuations resulting from clinically notable TEAEs ([3]; grade 3 paronychia (20 mg CD), grade 2 trichiasis (13.5 mg CD)): two
- Permanent treatment discontinuation due to hyperphosphatemia ([3]; in vivo): None of the hyperphosphatemia events resulted in permanent treatment discontinuation
- Relation of deaths due to TEAEs to treatment ([3]; in vivo): None of these deaths were considered treatment-related
- Maximum tolerated dose ([3]; monotherapy, 1–20 mg QD): not reached
- Stable disease ([4]; FGF amplification): 20%
- Stable disease ([4]; FGFR amplification): 26.9%
- Stable disease ([4]; FGFR fusions or rearrangements): 50%
- Median PFS ([4]; FGFR fusions or rearrangements (n = 20)): 5.7 months
- Stable disease ([4]; FGFR mutations): 23.1%
- Median PFS ([4]; FGFR mutations (n = 13)): 5.0 months
- Time to disease progression, individual patient ([4]; adenoid cystic carcinoma of the head and neck, 9 mg QD (CD)): 20.5 months
- Time on treatment to PR, individual patient ([4]; adenoid cystic carcinoma of the head and neck, 9 mg QD (CD), no FGF/FGFR alterations): 6.0 months
- Disease progression ([4]; all patients (N = 128)): 38.3%
- Median PFS ([4]; all patients (N = 128)): 2.8 months
- Partial response ([4]; all patients (N = 128)): 9.4%
- Partial responses achieved, number ([4]; all patients (N = 128)): 12
- Stable disease ([4]; all patients (N = 128)): 31.3%
- Median duration of response ([4]; all responders (n = 12)): 7.3 months
- Partial response [4, 7]: 23.1%
- Stable disease [4, 7]: 61.5%
- Duration of response, individual patient ([4]; cholangiocarcinoma, FGFR2-CCDC6 fusion): 11.3 months
- Time on treatment to PR, individual patient ([4]; non-small-cell lung cancer, 9 mg QD (CD), FGF/FGFR status unknown): 6.2 months
- Duration of response, individual patient ([4]; non-small-cell lung cancer, 9 mg QD (CD), ongoing at database lock): 29.9 months
- Duration of response, individual patient ([4]; pancreatic cancer, FGFR2-USP33 fusion): 10.7 months
- Stable disease ([4]; patients with FGF/FGFR alterations): 30.4%
- ORR ([4]; patients with FGFR fusions or rearrangements): 25.0%
- ORR ([4]; patients with FGFR mutations): 23.1%
- Best median percentage change in target lesion size ([4]; patients with SD and FGF/FGFR alterations (n = 24)): −8.0%
- Median PFS ([4]; positive for FGF/FGFR alterations (n = 79)): 3.0 months
